From ChEMBL document CHEMBL5518248, “Design, Synthesis, and Biological Evaluation of Novel Arylomycins against Multidrug-Resistant Gram-Negative Bacteria” (J Med Chem, 2024)
Values after ≈ are worked out from the molar mass of the structure shown. Active and inactive are the calls of the source. No cut-off for these calls is given here.

Columns and labels:
Pseudomonas aeruginosa [1] = assay: Antibacterial activity against Pseudomonas aeruginosa T-2022 assessed as inhibition of bacterial growth measured after 18 to 20 hrs by broth microdilution method; type: functional; details: time 18-20 hrs
Pseudomonas aeruginosa [2] = assay: Antibacterial activity against multi drug resistant Pseudomonas aeruginosa T-2022-D2-048 infected in cyclophosphamide-induced neutropenic thigh infection ICR mouse model assessed as reduction in log CFU at 12 mg/kg, iv measured after 24 hrs; type: functional
[3] = AUC (0 to t) in Sprague-Dawley rat at 10 mg/kg, iv measured upto 24 hrs LC-MS/MS analysis; type: ADME, organism-based; details: in vivo
[4] = AUC (0 to t) in Sprague-Dawley rat at 10 mg/kg, po measured upto 24 hrs LC-MS/MS analysis; type: ADME, organism-based; details: in vivo
[5] = Tmax in Sprague-Dawley rat at 10 mg/kg, po measured upto 24 hrs LC-MS/MS analysis; type: ADME, organism-based; details: in vivo
[6] = Cmax in Sprague-Dawley rat at 10 mg/kg, po measured upto 24 hrs LC-MS/MS analysis; type: ADME, organism-based; details: in vivo
[7] = MRT in Sprague-Dawley rat at 10 mg/kg, iv measured upto 24 hrs LC-MS/MS analysis; type: ADME, organism-based; details: in vivo
[8] = MRT in Sprague-Dawley rat at 10 mg/kg, po measured upto 24 hrs LC-MS/MS analysis; type: ADME, organism-based; details: in vivo
[9] = Half life in Sprague-Dawley rat at 10 mg/kg, iv measured upto 24 hrs LC-MS/MS analysis; type: ADME, organism-based; details: in vivo
[10] = Half life in Sprague-Dawley rat at 10 mg/kg, po measured upto 24 hrs LC-MS/MS analysis; type: ADME, organism-based; details: in vivo
[11] = Clearance in Sprague-Dawley rat at 10 mg/kg, iv measured upto 24 hrs LC-MS/MS analysis; type: ADME, organism-based; details: in vivo
[12] = Volume of distribution at steady state in Sprague-Dawley rat at 10 mg/kg, iv measured upto 24 hrs LC-MS/MS analysis; type: ADME, organism-based; details: in vivo, read-out: Vdss
[13] = Oral bioavailability in Sprague-Dawley rat at 10 mg/kg measured upto 24 hrs LC-MS/MS analysis; type: ADME, organism-based; details: in vivo
Escherichia coli [14] = assay: Antibacterial activity against Escherichia coli ATCC 35218 assessed as inhibition of bacterial growth measured after 18 to 20 hrs by broth microdilution method; type: functional; details: time 18-20 hrs
Escherichia coli [15] = assay: Antibacterial activity against Escherichia coli 14-2 assessed as inhibition of bacterial growth measured after 18 to 20 hrs by broth microdilution method; type: functional; details: time 18-20 hrs
Escherichia coli [16] = assay: Antibacterial activity against Escherichia coli 14-4 assessed as inhibition of bacterial growth measured after 18 to 20 hrs by broth microdilution method; type: functional; details: time 18-20 hrs
Klebsiella pneumoniae [17] = assay: Antibacterial activity against Klebsiella pneumoniae 15-1 assessed as inhibition of bacterial growth measured after 18 to 20 hrs by broth microdilution method; type: functional; details: time 18-20 hrs
Klebsiella pneumoniae [18] = assay: Antibacterial activity against Klebsiella pneumoniae 15-4 assessed as inhibition of bacterial growth measured after 18 to 20 hrs by broth microdilution method; type: functional; details: time 18-20 hrs
Klebsiella pneumoniae [19] = assay: Antibacterial activity against Klebsiella pneumoniae 15-5 assessed as inhibition of bacterial growth measured after 18 to 20 hrs by broth microdilution method; type: functional; details: time 18-20 hrs
Acinetobacter baumannii [20] = assay: Antibacterial activity against Acinetobacter baumannii 17-2 assessed as inhibition of bacterial growth measured after 18 to 20 hrs by broth microdilution method; type: functional; details: time 18-20 hrs
Acinetobacter baumannii [21] = assay: Antibacterial activity against Acinetobacter baumannii 17-8 assessed as inhibition of bacterial growth measured after 18 to 20 hrs by broth microdilution method; type: functional; details: time 18-20 hrs
Pseudomonas aeruginosa [22] = assay: Antibacterial activity against Pseudomonas aeruginosa 17-1 assessed as inhibition of bacterial growth measured after 18 to 20 hrs by broth microdilution method; type: functional; details: time 18-20 hrs
Pseudomonas aeruginosa [23] = assay: Antibacterial activity against Pseudomonas aeruginosa 19-5 assessed as inhibition of bacterial growth measured after 18 to 20 hrs by broth microdilution method; type: functional; details: time 18-20 hrs
HepG2 [24] = assay: Cytotoxicity against human HepG2 cells assessed as inhibition of cell growth incubated for 24 hrs by CCK8 method; type: functional, cell-based; details: HepG2, 24 h
HepG2 [25] = assay: Cytotoxicity against human HepG2 cells assessed as inhibition of cell growth at 100 uM incubated for 24 hrs by CCK8 method relative to control; type: functional
[26] = Cytotoxicity against HEK293T cells assessed as inhibition of cell growth incubated for 24 hrs by CCK8 method; type: toxicity, cell-based, HEK-293T; details: human
[27] = Cytotoxicity against HEK293T cells assessed as inhibition of cell growth at 100 uM incubated for 24 hrs by CCK8 method relative to control; type: toxicity, cell-based, HEK-293T; details: human
Jurkat [28] = assay: Cytotoxicity against human Jurkat cells assessed as inhibition of cell growth incubated for 24 hrs by CCK8 method; type: functional, cell-based
Jurkat [29] = assay: Cytotoxicity against human Jurkat cells assessed as inhibition of cell growth at 100 uM incubated for 24 hrs by CCK8 method relative to control; type: functional
Pseudomonas aeruginosa [30] = assay: Antibacterial efficacy against multi drug resistant Pseudomonas aeruginosa T-2022-D2-048 infected in cyclophosphamide-induced neutropenic thigh infection ICR mouse model assessed as decrease in bacterial burden administered as iv dose measured after 24 hrs; type: functional, organism-based; details: dose 3-12 mg/kg
Acinetobacter baumannii [31] = assay: Antibacterial activity against Acinetobacter baumannii; type: functional
Pseudomonas aeruginosa [32] = assay: Antibacterial activity against Pseudomonas aeruginosa; type: functional
Pseudomonas aeruginosa [33] = assay: Antibacterial efficacy against multi drug resistant Pseudomonas aeruginosa T-2022-D2-048 infected in cyclophosphamide-induced neutropenic thigh infection ICR mouse model assessed as decrease in bacterial burden at 40 mg/kg, iv dose measured after 24 hrs; type: functional, organism-based

Row | Compound | MIC (Pseudomonas aeruginosa [1]) [µg/mL] | Tmax [5] [h] | Cmax [6] [ng/mL] | MRT [7] [h] | MRT [8] [h] | half-life [9] [h] | half-life [10] [h] | clearance [11] [mL/min/kg] | Vd [12] [L/kg] | MIC (Escherichia coli [14]) [µg/mL] | MIC (Escherichia coli [15]) [µg/mL] | MIC (Escherichia coli [16]) [µg/mL] | MIC (Klebsiella pneumoniae [17]) [µg/mL] | MIC (Klebsiella pneumoniae [18]) [µg/mL] | MIC (Klebsiella pneumoniae [19]) [µg/mL] | MIC (Acinetobacter baumannii [20]) [µg/mL] | MIC (Acinetobacter baumannii [21]) [µg/mL] | MIC (Pseudomonas aeruginosa [22]) [µg/mL] | MIC (Pseudomonas aeruginosa [23]) [µg/mL] | Activity (Pseudomonas aeruginosa [30]) | further results
1 | Cc1nc(-c2ccc(CSSC(C)(C)C)cc2)ncc1C(=O)N[C@@H](CCN)C(=O)N(C)[C@@H]1C(=O)N[C@@H](C)C(=O)N[C@H](C(=O)NCC#N)Cc2ccc(OCCN)c(c2)-c2cc1ccc2OCCN [listing 1 of 2 here] | 4 (≈ 4.13 µM) | 3.33 | 11.5 | 6.27 | 5.63 | 4.18 | 2.83 | 1.16 | 0.435 |  |  |  |  |  |  |  |  |  |  |  | log CFU reduction (Pseudomonas aeruginosa [2]): 3.5 log CFU/g; AUC(0-t) at 24 h ([3]; Sprague-Dawley): 142000 ng·h/mL; AUC(0-t) at 24 h ([4]; Sprague-Dawley): 70.1 ng·h/mL; bioavailability ([13]; Sprague-Dawley): 0.05%
2 | Cc1nc(-c2ccc(C(C)(C)C)cc2)ncc1C(=O)N[C@@H](CCN)C(=O)N(C)[C@@H]1C(=O)N[C@@H](C)C(=O)N[C@H](C(=O)NCC#N)Cc2ccc(OCCN)c(c2)-c2cc1ccc2OCCN.Cl.Cl.Cl.Cl | 8 | 1.17 | 3.37 | 2.62 | 2.69 | 1.51 | 1.56 | 2.71 | 0.423 | ≤ 0.03 | ≤ 0.03 | ≤ 0.03 | ≤ 0.03 | 0.125 | 0.06 | 2 | 1 | 32 | 16 | inactive | IC50 (HepG2 [24]): > 100 µM; inhibition at 100 µM (HepG2 [25]): -3.46%; IC50 at 24 h [26]: > 100 µM; inhibition at 24 h, 100 µM [27]: 37.9%; IC50 (Jurkat [28]): > 100 µM; inhibition at 100 µM (Jurkat [29]): 20.8%; AUCt ([3]; iv, 10 mg/kg, 24 h): 61496 ng·h/mL; AUCt ([4]; po, 10 mg/kg, 24 h): 9.01 ng·h/mL; F ([13]; po, 10 mg/kg, 24 h): 0.1%; MIC90 (Acinetobacter baumannii [31]): 4 µg/mL; MIC90 (Pseudomonas aeruginosa [32]): 16 µg/mL
3 | C[C@@H](O)[C@H]1C(=O)N2C(C(=O)O)=C(S[C@@H]3CN[C@H](C(=O)N(C)C)C3)[C@H](C)[C@H]12 [MEROPENEM] | > 64 |  |  |  |  |  |  |  |  | 0.06 (≈ 0.156 µM) | 2 (≈ 5.22 µM) | 2 (≈ 5.22 µM) | > 64 | > 64 | > 64 | > 64 | > 64 | 8 (≈ 20.9 µM) | 32 (≈ 83.4 µM) |  | Activity (Pseudomonas aeruginosa [33]): Active
4 | Cc1nc(-c2ccc(CSSC(C)(C)C)cc2)ncc1C(=O)N[C@@H](CCN)C(=O)N(C)[C@@H]1C(=O)N[C@@H](C)C(=O)N[C@H](C(=O)NCC#N)Cc2ccc(OCCN)c(c2)-c2cc1ccc2OCCN [listing 2 of 2 here] |  |  |  |  |  |  |  |  |  |  |  |  |  |  |  |  |  |  |  | Dose-Dependent Effect | 
